# Measured values as given in patent US6423109B1, “Free flowing fertilizer composition with enhanced deposition/anti drift characteristics” (Adjuvants Unlimited Inc., priority 2000, dated 2002).
# Assay: Gel formation (% +50 mesh gel bound)
# Format: physicochemical
# Conditions: tap water at 1% dilution
smiles,measurement,value
"N.N.O=S(=O)(O)O [Ammonium Sulfate (AMS), Ammonium Sulfate]",% +50 mesh gel bound,0%
